Test results reported in article PMC12455130, “Multifunctional molecular agent for tau-targeted combinational therapy of Alzheimer’s disease” (The Journal of Biological Chemistry, 2025).

Assays:
[1] = tested on: ROS generated by R3 + Cu^2+; assay: ROS in solution, DCFH fluorescent probe; format: biochemical
Text: In this experiment, the fluorescent probe, 2′,7′-dichlorodihydrofluorescein (DCFH), was used to detect the formation of ROS in solution.
Figure 7 The scavenge ability of 4GA and 2GA on ROS.A, time-dependent experiment for monitoring ROS level in solution at different conditions, using the fluorescent probe 2′,7′-dichlorodihydrofluorescein (DCFH). B, ROS levels in SK-N-SH cells treated with different conditions detected by the fluorescent probe of DCFH in flow cytometry. The data were reported as the mean ± SD, n = 3. Statistical analysis was performed using a one-way ANOVA test, ∗p < 0.05, ∗∗p < 0.01, and ∗∗∗p < 0.001 (n = 3). C, confocal laser scanning microscopy (CLSM) analysis of the intracellular ROS level stained with DCFH. Scale bar represents 12.5 μm. 2GA, (4,10-dimethyl-1,4,7,10-tetraazacyclododecane-1,7-diyl)bis((3,4,5-trihydroxyphenyl)methanone); 4GA, (1,4,7,10-tetraazacyclododecane-1,4,7,10-tetrayl)tetrakis((3,4,5-trihydroxyphenyl)methanone); ROS, reactive oxygen species.

SK-N-SH cells = assay: Cell viability assay (CCK-8); format: cell-based; conditions: for SK-N-SH cells dead: 80 μM, 24 h incubation; for cytotoxicity (cell viability): SK-N-SH, concentration up to 40 μM
Procedure: However, we still face challenges to improve their therapeutic effects while reducing neurotoxicity. Therefore, a systematic investigation on the cytotoxicity of our new synthetic compounds was carried out. Herein, human neuroblastoma cells (SK-N-SH) were utilized for standard cell viability assay (Cell Counting Kit-8 [CCK-8] assay).
The human neuroblastoma cell (SK-N-SH) was obtained from the Chinese Academy of Sciences stem cell bank. Cells were maintained in Dulbecco’s modified Eagle’s medium (DMEM) supplemented with 10% fetal bovine serum (FBS), 100 U/ml penicillin G, and 100 μg/ml streptomycin at 37 °C in a humidified atmosphere containing 5% CO2.
Cells were plated in 96-well plate at a density of 1 × 10^4 in 100 μl medium per well for 24 h. Then, the FBS-free medium containing the tested compounds at different concentrations was used to replace the old medium. After 24 h incubation, 100 μl of FBS-free DMEM containing 10% CCK-8 was added into each well to replace the old medium. After 2 h incubation, the absorbance at 450 nm was measured by SpectraMax iD3 (Molecular Devices).

tau peptide R3 = biological target: T1, tau peptide R3 (Homo sapiens, UniProt P10636); assay: ThS assay, Cu2+-promoted heparin-induced R3 aggregation; format: biochemical; conditions: R3 15 μM, Cu2+ 3.8 μM, compound 10 μM, heparin 3.8 μM, 3 h
T1 construct: R3 (^306VQIVYK PVDLSK VTSKCG SLGNIH HKPGGG Q^336) and rabbit anti-tau antibody were purchased from MuJin; purchased MuJin
Text: Metal ions, especially Cu^2+, are believed to be highly compatible with cysteine residues of tau peptide as a coordination center ([26]). Accompanied by the formation of intermolecular S–Cu–S bridging coordination bond, or intermolecular disulfide bond, these metal ions have been proven to promote tau aggregation ([27]). After confirming that 4GA and 2GA can effectively remove copper ions through coordination, we further explore their effects on R3 aggregation under the promotion of Cu^2+. […] Heparin was used to initiate the aggregation ([15]). […] As a comparison, the effects of the precursor compounds: 4ME, 3ME, 2ME, and 1ME, on Cu^2+-promoted R3 aggregation were also examined (Fig. S15).
Figure 5 Kinetic curves and TEM image of R3 aggregation with 4GA or 2GA.A, kinetic curves of the R3 (15 μM) aggregation monitored by ThS fluorescence assay in different conditions. B, ThS fluorescence intensity of R3 (15 μM) incubated for 3 h in different conditions. C, TEM image of R3 fibrils in different conditions. Negatively stained with uranyl acetate. Scale bar represents 200 nm. Final concentrations of R3, Cu^2+, and inhibitors are 15, 3.8, and 10 μM, respectively. All aggregations were initiated by heparin (3.8 μM). 2GA, (4,10-dimethyl-1,4,7,10-tetraazacyclododecane-1,7-diyl)bis((3,4,5-trihydroxyphenyl)methanone); 4GA, (1,4,7,10-tetraazacyclododecane-1,4,7,10-tetrayl)tetrakis((3,4,5-trihydroxyphenyl)methanone); TEM, transmission electron microscopy; ThS, thioflavin S.
The promotion of Cu^2+ on R3 aggregation was also inspected, similar to the aforementioned operation, unless that 3.8 μM Cu^2+ was also included, and using 50 mM Hepes (pH 7.4) as the buffer solution.
Fig. S15 ThS fluorescence intensity of R3 (15 µM) incubated for 3 h. Final concentrations of R3, Cu^2+, and compounds are 15, 3.8 and 10 µM, respectively. All aggregations were initiated by heparin (3.8 µM).

[2] = tested on: tau-infected SK-N-SH cells; assay: Immunofluorescence / ThS staining of intracellular tau aggregation; format: cell-based, human; conditions: 1.5 μM R3 aggregates, 10 μM inhibitor; for fluorescence intensity of ThS against the control group: ImageJ
Procedure: The red fluorescence of antitau antibody (Cy3-AB) staining marked for Pan Tau protein. […] Finally, the fluorescence intensity was quantitatively analyzed via ImageJ (National Institutes of Health).
Figure 8 Confocal laser scanning microscopy images of SK-N-SH cells incubated with R3 aggregates and different inhibitors. 2-(4-Amidinophenyl)-6-indolecarbamidine dihydrochloride (DAPI) for nuclei staining (blue); Thioflavin S (ThS) for aggregated Tau protein (green); Cy3 marked anti-Tau antibody (Cy3-AB) for Pan Tau protein (all conformations of Tau) (red). Concentrations of R3 aggregates and inhibitors are 1.5 μM and 10 μM, respectively. Scale bar represents 25 μm.
Tau-infected pathological model cell lines were constructed by human neuroblastoma SK-N-SH cells using R3 aggregates as inducer, referring our earlier article ([28]). R3 aggregates were obtained from coincubation of 15 μM R3 peptide with 3.8 μM heparin in PBS at 37 °C for 4 h. Then, the solution was diluted to 1.5 μM in the culture medium. SK-N-SH cells were seeded onto 24-well plates (1 × 10^5/well) for 24 h. Then, 10 μM of different compounds (inhibitors) per well was added and incubated for 2 h. After changing the culture medium, these cells were treated with 1.5 μM R3 aggregates for 12 h and then further continued incubation for 12 h.
The samples were successively treated with 4% paraformaldehyde and 0.1% Triton X-100 for 15 min each and washed three times with PBS. Blocked with 5% goat serum for 30 min, the samples were incubated with rabbit anti-Tau antibody (1:200 dilution) at 4 °C for 24 h and washed three times with PBS. Then they were incubated with Cy3-conjugated Donkey Anti-Rabbit IgG (1:1000 dilution) at 37 °C for 1 h and washed three times with PBS. Subsequently, 60 μM ThS was added to stain tau aggregates for 15 min and washed three times with PBS. Finally, cells were stained with 2-(4-amidinophenyl)-6-indolecarbamidine dihydrochloride (0.02%) for 5 min to staining nuclei and washed three times with PBS. The antifade mounting medium was used for cell slides to ensure fluorescence. The fluorescence signals were monitored using a CLSM (Leica TCS SP8).
Fig. S16 Quantitatively analysis of the fluorescence intensity in the Confocal laser scanning microscopy images ([…]) of SK-N-SH cells incubated with R3, heparin and different inhibitors by ImageJ software. Florescence intensity per cell (n = 8), analyzed by ImageJ software.

T1 sequence (P10636 623-653 limits assumed): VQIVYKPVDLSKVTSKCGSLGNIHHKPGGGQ

Row | Structure (SMILES) | DCFH fluorescence (ROS) in R3 + Cu2+ solution [1] | SK-N-SH cells dead (SK-N-SH cells) | cytotoxicity (cell viability) (SK-N-SH cells; 24 h) | ThS fluorescence intensity of R3 aggregation in the presence of Cu2+ (tau peptide R3) | intracellular tau aggregation (ThS green fluorescence, CLSM) [2] | fluorescence intensity of ThS against the control group [2] | cytotoxicity (survival rate of SK-N-SH cells) (SK-N-SH cells; dose-dependent test, 24 h)
1 | CN1CCN(C(=O)c2cc(O)c(O)c(O)c2)CCN(C)CCN(C(=O)c2cc(O)c(O)c(O)c2)CC1 [2GA, (4,10-dimethyl-1,4,7,10-tetraazacyclododecane-1,7-diyl)bis((3,4,5-trihydroxyphenyl)methanone)] | returning to the level observed in the R3 solution without Cu^2+ | 34.2% | insignificant cytotoxicity | dropped dramatically, to a level lower than the case of R3 aggregation in the absence of Cu^2+ | the green fluorescence disappeared | 4.6% | –
2 | CN1CCN(C)CCN(C)CCN(C)CC1 [4ME, 1,4,7,10-tetramethyl-1,4,7,10-tetraazacyclododecane, reference compound] | – | – | – | only to a level close to the case of R3 aggregation in the absence of Cu^2+ | slight inhibitory efficiency | – | negligible
3 | O=C(O)c1cc(O)c(O)c(O)c1 [GA, gallic acid, reference compound] | could also quench the DCFH fluorescence | – | – | – | slight inhibitory efficiency | – | –
4 | O=C(c1cc(O)c(O)c(O)c1)N1CCN(C(=O)c2cc(O)c(O)c(O)c2)CCN(C(=O)c2cc(O)c(O)c(O)c2)CCN(C(=O)c2cc(O)c(O)c(O)c2)CC1 [4GA, (1,4,7,10-tetraazacyclododecane-1,4,7,10-tetrayl)tetrakis((3,4,5-trihydroxyphenyl)methanone)] | returning to the level observed in the R3 solution without Cu^2+ | 40.5% | insignificant cytotoxicity | dropped dramatically, to a level lower than the case of R3 aggregation in the absence of Cu^2+ | the green fluorescence disappeared | 3.3% | –
